“And” between values parts separate entries of the source, which are not always exact repeats. Equal entries are not always repeated. Structures can show the parent of a compound that is named as a salt. One block for each compound: values may come before it.
Experiments:
[1] = tested on: Uptake of Phosphorus from the Intestine; experiment: In vivo co-dosing in chow (urine P out / P consumed); settings: Rattus norvegicus, feed or water, rats, compound in chow, read-out: Mean % inhibition Urine Pout/P consumed; for inhibition in vivo at 50 mg/kg/day: mean drug dose 50 mg/kg/day; for inhibition in vivo at 100 mg/kg/day: mean drug dose 100 mg/kg/day; for inhibition in vivo at 120 mg/kg/day: mean drug dose 120 mg/kg/day
Description: Male, 7-week-old Sprague-Dawley rats (Charles-River laboratories international, Hollister, Calif.) were allowed to acclimate for a minimum of 3 days. The experiment was initiated by switching animals to a synthetic diet (0.6% phosphorus and 0.6% calcium, Harlan Teklad TD.84122) for four days. After this time, the animals were placed into metabolic cages for daily monitoring of food and water consumption, as well as urine and fecal collections. Test compounds were incorporated into the powdered diet listed above containing 3% chocolate flavoring (w/w, BioServ #7345) at 1.3 mg test compound per gram of diet to achieve an average daily nominal dose of 100 mg/kg/day. The actual dose received by each animal was later determined by measuring prepared diet consumption and body weight. Urine samples were collected in three daily periods from 24-48, 48-72, and 72-96 hours of drug dosing. Averaging these three 24 h periods allows for the more representative measurements of urination, fecal excretion, food consumption and water uptake for each animal. Phosphorus levels in the urine were determined by anion exchange chromatography using a Dionex ICS-3000 ion chromatography system. Urine samples were diluted 1:500 or 1:1000 and injected onto an IonPac AS18 analytical column (2×250 mm) using a potassium hydroxide eluent. Elution of urine phosphate ions was monitored via conductivity detector and reported as ppm relative to a standard ion solution containing phosphate. Daily urinary P output relative to the P consumed in the prepared diet for each animal was calculated. The percentage inhibition of phosphorus absorption was estimated by determining the reduction of this ratio compared to the control group (animals with no drug in chow). The differences between the means of control and treated groups were evaluated by t tests. In all experiments, one group was always included that had Renvela powder blended into their chow at 0.9% targeting a dose of 750 mg/kg.

[2] = Stability of compounds in simulated intestinal fluid (SIF); format: in vitro ADME; settings: simulated intestinal fluid (3 mg/mL pancreatin), incubation time 6 hr, relative to t=0
Outline: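 Compounds at […] were incubated 3 or 6 hr in USP simulated gastric fluid with 3 mg/mL pepsin or simulated intestinal fluid with 3 mg/mL pancreatin. Remaining compound was quantified by HPLC-UV or HPLC-MS peak area % and reported as percent of the t=0 level in the same medium.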

SMILES: CCN(CC)c1ccc(NC(=O)c2cccc(CCCOCCOCCOCCOCCNS(=O)(=O)c3ccc(C(=O)N(CCOC)CCOCCOCCOCCOCCOCCOCCOC)cc3)c2)c(-c2cc(C(=O)NCc3cccc(C(F)(F)F)c3)ccn2)c1 [Example 272, 2-(2-(3-(1-(4-(2,5,8,11,14,17,20-heptaoxadocosan-22-yl(2-methoxyethyl)carbamoyl)phenylsulfonamido)-3,6,9,12-tetraoxapentadecan-15-yl)benzamido)-5-(diethylamino)phenyl)-N-(3-(trifluoromethyl)benzyl)isonicotinamide]
- inhibition in vivo at 50 mg/kg/day [1]: ≤ 10%

SMILES: CCN(CC)c1ccc(NC(=O)c2cccc(CCCOCCOCCOCCOCCC(=O)O)c2)c(-c2cc(C(=O)NCc3cccc(C(F)(F)F)c3)ccn2)c1 [Example 251, 16-(3-(4-(diethylamino)-2-(4-(3-(trifluoromethyl)benzylcarbamoyl)pyridin-2-yl)phenylcarbamoyl)phenyl)-4,7,10,13-tetraoxahexadecan-1-oic acid]
- % remaining, SIF [2]: >80%
- inhibition in vivo at 50 mg/kg/day [1]: ≤ 10%

SMILES: CCN(CC)c1ccc(NC(=O)c2cccc(C(=O)N(C)CCN(CCOC)CCOCCOCCOCCOCCOCCOCCOC)c2)c(-c2cc(C(=O)NCc3cccc(C(F)(F)F)c3)ccn2)c1 [Example 335, N^1-(4-(Diethylamino)-2-(4-(3-(trifluoromethyl)benzylcarbamoyl)pyridin-2-yl)phenyl)-N^3-(23-(2-methoxyethyl)-2,5,8,11,14,17,20-heptaoxa-23-azapentacosan-25-yl)-N^3-methylisophthalamide, trifluoroacetate]
- % remaining, SIF [2]: >80%
- inhibition in vivo at 100 mg/kg/day [1]: ≤ 10%

SMILES: CCN(CC)c1ccc(NC(=O)c2cccc(CCCOCCOCCOCCOCCOCCOCCOCCOCCOCCC(=O)O)c2)c(-c2cc(C(=O)NCc3cccc(C(F)(F)F)c3)ccn2)c1 [Example 298, 31-(3-(4-(diethylamino)-2-(4-(3-(trifluoromethyl)benzylcarbamoyl)pyridin-2-yl)phenylcarbamoyl)phenyl)-4,7,10,13,16,19,22,25,28-nonaoxahentriacontan-1-oic acid]
- inhibition in vivo at 50 mg/kg/day [1]: 10 to 30%

SMILES: O=C(O)CCOCCOCCOCCNC(=O)c1cccc2c1ccn2Cc1cccc(C(=O)Nc2ccc(N3CCCCC3)cc2-c2cc(C(=O)N[C@H]3CCCc4ccccc43)ccn2)c1 [Example 181, (S)-1-oxo-1-(1-(3-(4-(piperidin-1-yl)-2-(4-(1,2,3,4-tetrahydronaphthalen-1-ylcarbamoyl)pyridin-2-yl)phenylcarbamoyl)benzyl)-1H-indol-4-yl)-5,8,11-trioxa-2-azatetradecan-14-oic acid]
- % remaining, SIF [2]: >80%
- inhibition in vivo at 120 mg/kg/day [1]: ≤ 10%

SMILES: CCN(CC)c1ccc(NC(=O)c2cccc(CCCOCCOCCOCCOCCOCCC(=O)O)c2)c(-c2cc(C(=O)NCc3cccc(C(F)(F)F)c3)ccn2)c1 [Example 300, 19-(3-(4-(diethylamino)-2-(4-(3-(trifluoromethyl)benzylcarbamoyl)pyridin-2-yl)phenylcarbamoyl)phenyl)-4,7,10,13,16-pentaoxanonadecan-1-oic acid]
- inhibition in vivo at 50 mg/kg/day [1]: ≤ 10%

SMILES: CCN(CC)c1ccc(NC(=O)c2cccc(CCCOCCOCCOCCOCCOCCOCCC(=O)O)c2)c(-c2cc(C(=O)NCc3cccc(C(F)(F)F)c3)ccn2)c1 [Example 299, 22-(3-(4-(diethylamino)-2-(4-(3-(trifluoromethyl)benzylcarbamoyl)pyridin-2-yl)phenylcarbamoyl)phenyl)-4,7,10,13,16,19-hexaoxadocosan-1-oic acid]
- inhibition in vivo at 50 mg/kg/day [1]: 10 to 30%

SMILES: CN(CCOCCOCCOCCC(=O)O)C(=O)Cc1cccc(SCc2cccc(C(=O)Nc3ccc(N4CCCCC4)cc3-c3cc(C(=O)NCc4cccc(C(F)(F)F)c4)ccn3)c2)c1 [Example 138]
- % remaining, SIF [2]: 40-60%

SMILES: O=C(O)CCOCCOCCOCCOCCCc1cccc(C(=O)Nc2ccc(N3CCCCC3)cc2-c2cc(C(=O)N[C@H]3CCCc4ccccc43)ccn2)c1 [Example 252, 3-(2-(2-(2-(3-(3-((2-(4-(((S)-1,2,3,4-tetrahydronaphthalen-1-yl)carbamoyl)pyridin-2-yl)-4-(piperidin-1-yl)phenyl)carbamoyl)phenyl)propoxy)ethoxy)ethoxy)ethoxy)propanoic acid]
- % remaining, SIF [2]: >80%
- inhibition in vivo at 90 mg/kg/day ([1]; mean drug dose 90 mg/kg/day): 10 to 30%

SMILES: O=C(NCc1cccc(C(F)(F)F)c1)c1ccnc(-c2cc(N3CCCCC3)ccc2NC(=O)c2cccc(CSc3ccc(C(=O)O)c(Br)c3)c2)c1 [Example 8.21]
- % remaining, SIF [2]: >80%

SMILES: CCN(CC)c1ccc(NC(=O)c2cccc(CSc3cccc(CC(=O)N(C)CCOCCOCCOCCC(=O)O)c3)c2)c(-c2cc(C(=O)NCc3cccc(C(F)(F)F)c3)ccn2)c1 [Example 144, 3-(2-(2-(2-(2-(3-(3-(4-(diethylamino)-2-(4-(3-(trifluoromethyl)benzylcarbamoyl)pyridin-2-yl)phenylcarbamoyl)benzylthio)phenyl)-N-methylacetamido)ethoxy)ethoxy)ethoxy)propanoic acid]
- % remaining, SIF [2]: >80%
- inhibition in vivo at 100 mg/kg/day [1]: ≤ 10%

SMILES: CCN(CC)c1ccc(NC(=O)c2cccc(C(=O)N(C)CCOCCOCCOCCC(=O)O)c2)c(-c2cc(C(=O)NCc3cccc(C(F)(F)F)c3)ccn2)c1 [Example 188, 1-(3-((4-(diethylamino)-2-(4-((3-(trifluoromethyl)benzyl)carbamoyl)pyridin-2-yl)phenyl)carbamoyl)phenyl)-2-methyl-1-oxo-5,8,11-trioxa-2-azatetradecan-14-oic acid]
- inhibition in vivo at 110 mg/kg/day ([1]; mean drug dose 110 mg/kg/day): 10 to 30%

More lines, main results first:

- % remaining, SIF [2]: >80%
SMILES: CCN(CC)c1ccc(NC(=O)c2cccc(CSCCOCCOCCOCCOCCOCCOCCOCCOCCC(=O)O)c2)c(-c2cc(C(=O)N[C@H]3CCCc4ccccc43)ccn2)c1 [Example 161, (S)-1-(3-(4-(diethylamino)-2-(4-(1,2,3,4-tetrahydronaphthalen-1-ylcarbamoyl)pyridin-2-yl)phenylcarbamoyl)phenyl)-5,8,11,14,17,20,23,26-octaoxa-2-thianonacosan-29-oic acid]
- inhibition in vivo at 120 mg/kg/day [1]: ≤ 10%

- % remaining, SIF [2]: >80%
SMILES: CCN(CC)c1ccc(NC(=O)c2cccc(CSCCOCCOCCOCCOCCOCCOCCOCCOCCC(=O)O)c2)c(-c2cc(C(=O)NCc3cccc(C(F)(F)F)c3)ccn2)c1 [Example 166, 1-(3-(4-(diethylamino)-2-(4-(3-(trifluoromethyl)benzylcarbamoyl)pyridin-2-yl)phenylcarbamoyl)phenyl)-5,8,11,14,17,20,23,26-octaoxa-2-thianonacosan-29-oic acid]
- inhibition in vivo at 120 mg/kg/day [1]: 10 to 30%

- % remaining, SIF [2]: 60-80% and >80%
SMILES: CCN(CC)c1ccc(NC(=O)c2cccc(CCCOCCOCCOCCOCCOCCOCCOCCOCCOC)c2)c(-c2cc(C(=O)N[C@H]3CCCc4ccccc43)ccn2)c1 [Example 261, (S)-2-(2-(3-(2,5,8,11,14,17,20,23,26-nonaoxanonacosan-29-yl)benzamido)-5-(diethylamino)phenyl)-N-(1,2,3,4-tetrahydronaphthalen-1-yl)isonicotinamide]
- inhibition in vivo at 100 mg/kg/day [1]: 10 to 30%

- % remaining, SIF [2]: >80%
SMILES: CCCN(CCC)c1ccc(NC(=O)c2cccc(COCCOCCOCCOCCOCCOCCOCCOCCOC)c2)c(-c2cc(C(=O)NCc3cccc(C(F)(F)F)c3)ccn2)c1 [Example 200, 2-(2-(3-(2,5,8,11,14,17,20,23,26-nonaoxaheptacosyl)benzamido)-5-(dipropylamino)phenyl)-N-(3-(trifluoromethyl)benzyl)isonicotinamide]
- inhibition in vivo at 100 mg/kg/day [1]: 10 to 30%

- % remaining, SIF [2]: >80%
SMILES: CCN(CC)c1ccc(NC(=O)c2cccc(CCCOCCOCCOCCOCCOCCOCCOCCOCCOC)c2)c(-c2cc(C(=O)NCc3cccc(C(F)(F)F)c3)ccn2)c1 [Example 269, 2-(2-(3-(2,5,8,11,14,17,20,23,26-nonaoxanonacosan-29-yl)benzamido)-5-(diethylamino)phenyl)-N-(3-(trifluoromethyl)benzyl)isonicotinamide]
- inhibition in vivo at 100 mg/kg/day [1]: ≤ 10%

- % remaining, SIF [2]: >80%
SMILES: CCN(CC)c1ccc(NC(=O)c2cccc(CSCCOCCOCCOCCOCCOCCOCCOCCOC)c2)c(-c2cc(C(=O)NCc3cccc(C(F)(F)F)c3)ccn2)c1 [Example 265, 2-(2-(3-(2,5,8,11,14,17,20,23-octaoxa-26-thiaheptacosan-27-yl)benzamido)-5-(diethylamino)phenyl)-N-(3-(trifluoromethyl)benzyl)isonicotinamide]
- inhibition in vivo at 120 mg/kg/day [1]: ≤ 10%

From US20140023611A1 (priority 2010, published 2014)
